A short description of this test: DPPH radical scavenging antioxidant test (in vitro). The format is biochemical. The settings on record: 517 nm; for Inhibition (radical scavenging inhibition): 0.2 mL DPPH (0.75 mM), compound 3 μM in ethanol, 30 minutes incubation in the dark. The method, then:
The antioxidant properties of the 8-(3-flurobenzylideneamino)naphthalene-1,3-disulfonic acid compound were studied by adding 0.2 mL DPPH (0.75 mM)) 8-(3-flurobenzylideneamino)naphthalene-1,3-disulfonic acid (III) (3 μM) in ethanol. After 30 minutes of incubation in the dark, the absorbance was read against a blank at 517 nm. Ascorbic acid (vitamin C) was used as standard antioxidants (positive control). A blank sample was prepared by 0.2 ml of DPPH in 3 mL ethanol. A negative control sample was run using ethanol instead of the sample. The radical scavenging inhibition was calculated using the following equation: […]
The antioxidant activity for the synthesized compound is listed in Table 1, using Vitamin C as a reference.

For the compound `O=C1O[C@H]([C@@H](O)CO)C(O)=C1O` [vit c, Ascorbic acid, reference compound], the “Inhibition (radical scavenging inhibition)” value worked out at 74%.

With `O=S(=O)(O)c1cc(S(=O)(=O)O)c2c(/N=C/c3cccc(F)c3)cccc2c1` [Product III, 8-(3-flurobenzylideneamino)naphthalene-1,3-disulfonic acid], the “Inhibition (radical scavenging inhibition)” value is 52%. Moreover, the “antioxidant potential in DPPH test compared to vitamin C (in words)” value (DPPH in vitro test, vitamin C as positive control) is “high potential as an antioxidant compared to vitamin C”.

The record behind these values is US11945768B1, “8-(3-flurobenzylideneamino)naphthalene-1,3-disulfonic acid as an antioxidant compound” (KING FAISAL UNIVERSITY, priority 2023, dated 2024).
